Laboratory results from patent US11484607B2, “PSMA-targeted NIR dyes and their uses” (On Target Laboratories, LLC, priority 2015, dated 2022).

Experiments:
[1] = target: T1, PSMA (Homo sapiens, UniProt Q04609); assay: Relative binding affinity of DUPA-NIR conjugates with respect to DUPA-FITC on 22Rv1 cells, flow cytometry; details: for affinity for PSMA (in words): in vitro binding affinity data; for Kd: conjugates with aromatic linkers, 1 h at 37° C., 100 nM DUPA-FITC
T1 construct: host or cells: 22Rv1 human prostate cancer cells
T1 sequence (Q04609 whole entry): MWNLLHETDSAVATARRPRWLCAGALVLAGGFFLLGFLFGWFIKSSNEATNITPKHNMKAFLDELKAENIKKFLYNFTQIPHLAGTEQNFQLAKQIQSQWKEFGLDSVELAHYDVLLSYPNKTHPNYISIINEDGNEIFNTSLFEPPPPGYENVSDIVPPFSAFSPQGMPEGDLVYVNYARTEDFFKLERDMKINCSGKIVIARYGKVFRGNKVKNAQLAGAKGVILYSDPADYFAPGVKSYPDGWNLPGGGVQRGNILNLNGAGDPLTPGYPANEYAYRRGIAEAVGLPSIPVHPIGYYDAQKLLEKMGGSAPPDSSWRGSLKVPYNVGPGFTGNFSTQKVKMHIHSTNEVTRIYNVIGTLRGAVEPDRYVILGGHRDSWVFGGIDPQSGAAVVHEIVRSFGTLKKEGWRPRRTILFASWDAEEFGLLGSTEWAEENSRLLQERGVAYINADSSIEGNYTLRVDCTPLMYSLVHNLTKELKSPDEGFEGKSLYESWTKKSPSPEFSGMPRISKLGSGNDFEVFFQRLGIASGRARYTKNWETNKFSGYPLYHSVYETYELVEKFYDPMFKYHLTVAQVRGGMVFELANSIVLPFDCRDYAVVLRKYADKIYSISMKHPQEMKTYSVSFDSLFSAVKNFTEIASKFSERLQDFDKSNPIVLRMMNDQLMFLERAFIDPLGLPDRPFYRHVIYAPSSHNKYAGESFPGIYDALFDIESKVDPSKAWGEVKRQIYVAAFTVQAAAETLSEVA
Procedure: (§1) FIG. 3—Relative binding affinities of DUPA-NIR conjugates 1-9 with respect to DUPA-FITC (14). PSMA-positive 22Rv1 human prostate cancer cells were incubated for 1 h at 37° C. in the presence of 100 nM DUPA-FITC with increasing concentrations of DUPA-NIR conjugates. […] Cell bound fluorescence was assayed as using flow cytometry.
as §1, with “6—Relative” for “3—Relative”, “with aromatic amino acids linkers” for “1-9”
as §1, with “3 Relative” for “3—Relative”
in vitro studies. […] PSMA-positive 22Rv1 human prostate cancer cells were incubated for 1 h at 37° C. in the presence of 100 nM DUPA-FITC with increasing concentrations of DUPA-NIR conjugates. […] Cell bound fluorescence was assayed as using flow cytometry.
PSMA-positive 22Rv1 human prostate cancer cells were incubated for 1 h at 37° C. in the presence of 100 nM DUPA-FITC with increasing concentrations of DUPA-NIR conjugates. […] Cell bound fluorescence was assayed as using flow cytometry.
as §1, with “24: Relative” for “3—Relative”, “conjugates” for “conjugates 1-9”
PSMA-positive 22Rv1 human prostate cancer cells were incubated for 1 h at 37° C. in the presence of 100 nM DUPA-FITC with increasing concentrations of DUPA-NIR conjugates. […] Cell bound fluorescence was assayed as using flow cytometry
Cancer cells were incubated for 1 h at 37° C. in the presence of 100 nM DUPA-FITC with increasing concentrations of compound 15. […] Cell bound fluorescence was assayed as using flow cytometry.

[2] = test system: human prostate tumor xenografts (22Rv1 cells); assay: Tissue biodistribution and tumor-to-tissue fluorescence ratio of DUPA-NIR conjugates, IVIS imaging; assay type: in vivo, mice; details: 2 h after tail vein injection
Procedure: In vivo studies. More specifically, biodistribution of DUPA-NIR conjugates 1-9 was monitored using fluorescence imaging of mice bearing human prostate tumor xenografts (22Rv1 cells). Male nude mice with 22Rv1 tumor xenografts were injected with DUPA-NIR dye conjugates via tail vein. The mice were euthanized 2 h after administration of the DUPA-NIR dye conjugate, selected tissues were harvested, and tissues were imaged with IVIS imager (ex=745 nm, em=ICG, exposure time=1 s).
The conjugates were also tested to show the ratio of tumor-to-tissue fluorescence. […] After imaging, fluorescence within a Region of interest (ROI) was measured for each tissue using In Vivo imaging software and tumor-to-tissue fluorescence was then calculated
(§2) in vivo studies. […] Male nude mice with 22Rv1 tumor xenografts were injected with DUPA-NIR dye conjugates via tail vein. The mice were euthanized 2 h after administration of the DUPA-NIR dye conjugate, selected tissues were harvested, and tissues were imaged with IVIS imager (ex=745 nm, em=ICG, exposure time=1 s). After imaging, fluorescence within a Region of interest (ROI) was measured for each tissue using In Vivo imaging software and tumor-to-tissue fluorescence was then calculated.
Male nude mice with 22Rv1 tumor xenografts were injected with DUPA-NIR dye conjugates via tail vein. The mice were euthanized 2 h after administration of the DUPA-NIR dye conjugate, selected tissues were harvested, and tissues were imaged with IVIS imager (ex=745 nm, em=ICG, exposure time=1 s). After imaging, fluorescence within a Region of interest (ROI) was measured for each tissue using In Vivo imaging software and tumor-to-tissue fluorescence was then calculated.
as §2, with “In vivo” for “in vivo”

[3] = test system: 22Rv1 human prostate tumor xenograft; assay: Time dependent whole-body fluorescence imaging of DUPA-NIR conjugates, IVIS imager; assay type: in vivo, mouse; details: for whole-body imaging: 6 or 20 nmol, imaged at different time intervals
Procedure: 22Rv1 human prostate tumor xenograft bearing mouse was injected with 20 nmol of 15 and imaged with IVIS imager (ex=745 nm, em=ICG, exposure time=1 s) at different time intervals.
22Rv1 human prostate tumor xenograft bearing mouse was injected with 20 nmol of 23 and imaged with IVIS imager (ex=745 nm, em=ICG, exposure time=1 s) at different time intervals.
22Rv1 human prostate tumor xenograft bearing mouse was injected with 20 nmol of 25 and imaged with IVIS imager (ex=745 nm, em=ICG, exposure time=1 s) at different time intervals
22Rv1 human prostate tumor xenograft bearing mouse was injected with 6 nmol of 35 and imaged with IVIS imager (ex=745 nm, em=ICG, exposure time=1 s) at different time intervals.
22Rv1 human prostate tumor xenograft bearing mouse was injected with 6 nmol of 36 and imaged with IVIS imager (ex=745 nm, em=ICG, exposure time=1 s) at different time intervals.
22Rv1 human prostate tumor xenograft bearing mouse was injected with 20 nmol of 39 and imaged with IVIS imager (ex=745 nm, em=ICG, exposure time=1 s) at different time intervals.
22Rv1 human prostate tumor xenograft bearing mouse was injected with 20 nmol of 40 and imaged with IVIS imager (ex=745 nm, em=ICG, exposure time=1 s) at different time intervals.
22Rv1 human prostate tumor xenograft bearing mouse was injected with 20 nmol of 41 and imaged with IVIS imager (ex=745 nm, em=ICG, exposure time=1 s) at different time intervals.
FIG. 25: Overlay of whole body or half body fluorescence image over white light images after adjusting the threshold. 22Rv1 human prostate tumor xenograft bearing mouse was injected with 20 nmol of 54 and imaged with IVIS imager (ex=745 nm, em=ICG, exposure time=1 s) at different time intervals.
22Rv1 human prostate tumor xenograft bearing mouse was injected with 20 nmol of 55 and imaged with IVIS imager (ex=745 nm, em=ICG, exposure time=1 s) at different time intervals.
22Rv1 human prostate tumor xenograft bearing mouse was injected with 20 nmol of 56 and imaged with IVIS imager (ex=745 nm, em=ICG, exposure time=1 s) at different time intervals.
22Rv1 human prostate tumor xenograft bearing mouse was injected with 20 nmol of 57 and imaged with IVIS imager (ex=745 nm, em=ICG, exposure time=1 s) at different time intervals
22Rv1 human prostate tumor xenograft bearing mouse was injected with 20 nmol of 58 and imaged with IVIS imager (ex=745 nm, em=ICG, exposure time=1 s) at different time intervals
22Rv1 human prostate tumor xenograft bearing mouse was injected with 20 nmol of 60 and imaged with IVIS imager (ex=745 nm, em=ICG, exposure time=1 s) at different time intervals.
in vivo studies. […] 22Rv1 human prostate tumor xenograft bearing mouse was injected with 20 nmol of 63 and imaged with IVIS imager (ex=745 nm, em=ICG, exposure time=1 s) at different time intervals.
22Rv1 human prostate tumor xenograft bearing mouse was injected with 6 nmol of 63 and imaged with IVIS imager (ex=745 nm, em=ICG, exposure time=1 s) at different time intervals.
22Rv1 human prostate tumor xenograft bearing mouse was injected with 20 nmol of 64 and imaged with IVIS imager (ex=745 nm, em=ICG, exposure time=1 s) at different time intervals.
22Rv1 human prostate tumor xenograft bearing mouse was injected with 6 nmol of 15 and imaged with IVIS imager (ex=745 nm, em=ICG, exposure time=1 s) at different time intervals.

[4] = Concentration dependent UV spectrometric study of higher order aggregates; assay type: physicochemical
Procedure: Possible OTL78-related hypersensitivity in human was next examined using basophil activation assay. Drug related hypersensitivity is mainly due to immune response caused by cross-linking of immunoglobulin E (IgE) expressed on mast cells and basophils (FIG. 47D) resulting in activation and subsequent degranulation to release vasoactive amines, prostaglandins, and cytokines (29). Since cross-linking of IgE can be due to aggregates, concentration dependent UV spectrometric studies were conducted to determine higher order aggregates of OTL78.

Molecule	affinity for PSMA (in words) [1]	tumor-to-background ratio (TBR), in words [2]	sites of accumulation in whole-body imaging ([3]; 6 nmol, time dependent)	whole-body imaging [3]	Kd [1] [nM]	higher aggregates ([4]; 75 μM concentration in saline) [%]	higher order aggregates (UV spectra), in words ([4]; 75 μM in saline)
CC1(C)C(/C=C/C2=C(Oc3ccc(C[C@H](NC(=O)[C@H](Cc4ccccc4)NC(=O)CCCCCCCNC(=O)CC[C@H](NC(=O)N[C@@H](CCC(=O)O)C(=O)O)C(=O)O)C(=O)O)cc3)C(=C/C=C3/N(CCCCS(=O)(=O)O)c4ccc(S(=O)(=O)O)cc4C3(C)C)/CCC2)=[N+](CCCCS(=O)(=O)[O-])c2ccc(S(=O)(=O)O)cc21 [Compound 15]	very high affinity	excellent	accumulated in PSMA-positive tumors and kidneys	very good whole-body imaging data within 2-4 hours			
CC1(C)C(/C=C/C2=C(Oc3ccc(C[C@H](NC(=O)[C@H](Cc4ccccc4)NC(=O)CCOCCOCCNC(=O)CC[C@H](NC(=O)N[C@@H](CCC(=O)O)C(=O)O)C(=O)O)C(=O)O)cc3)C(=C/C=C3/N(CCCCS(=O)(=O)O)c4ccc(S(=O)(=O)O)cc4C3(C)C)/CCC2)=[N+](CCCCS(=O)(=O)[O-])c2ccc(S(=O)(=O)O)cc21 [Compound 35]		excellent		very good whole-body imaging data within 2-4 hours	23.9		
OTL38 [reference compound]						> 50	concentration dependent aggregation peak
CC1(C)C(/C=C/C2=C(Oc3ccc(C[C@H](NC(=O)[C@H](Cc4ccccc4)NC(=O)[C@H](Cc4ccccc4)NC(=O)CCCCCCCNC(=O)CC[C@H](NC(=O)N[C@@H](CCC(=O)O)C(=O)O)C(=O)O)C(=O)O)cc3)C(=C/C=C3/N(CCCCS(=O)(=O)O)c4ccc(S(=O)(=O)O)cc4C3(C)C)/CCC2)=[N+](CCCCS(=O)(=O)[O-])c2ccc(S(=O)(=O)O)cc21 [Compound 23]	very high affinity			very good whole-body imaging data within 2-4 hours	7.5		

The next lines start with results.

affinity for PSMA (in words) [1]	Molecule	tumor-to-background ratio (TBR), in words [2]	sites of accumulation in whole-body imaging ([3]; 6 nmol, time dependent)	whole-body imaging [3]	Kd [1] [nM]	higher aggregates ([4]; 75 μM concentration in saline) [%]	higher order aggregates (UV spectra), in words ([4]; 75 μM in saline)
very high affinity	CC1(C)C(/C=C/C2=C(Oc3ccc(C[C@H](NC(=O)[C@](C)(Cc4ccc(F)cc4)NC(=O)CCOCCOCCNC(=O)CC[C@H](NC(=O)N[C@@H](CCC(=O)O)C(=O)O)C(=O)O)C(=O)O)cc3)C(=C/C=C3/N(CCCCS(=O)(=O)O)c4ccc(S(=O)(=O)O)cc4C3(C)C)/CCC2)=[N+](CCCCS(=O)(=O)[O-])c2ccc(S(=O)(=O)O)cc21 [Compound 36]			very good whole-body imaging data within 2-4 hours			
very high affinity	CC1(C)C(/C=C/C2=C(Oc3ccc(C[C@H](NC(=O)[C@H](CCCNC(=N)N)NC(=O)[C@H](Cc4ccccc4)NC(=O)CCCCCCCNC(=O)CC[C@H](NC(=O)N[C@@H](CCC(=O)O)C(=O)O)C(=O)O)C(=O)O)cc3)C(=C/C=C3/N(CCCCS(=O)(=O)O)c4ccc(S(=O)(=O)O)cc4C3(C)C)/CCC2)=[N+](CCCCS(=O)(=O)[O-])c2ccc(S(=O)(=O)O)cc21 [Compound 41]			very good whole-body imaging			
